{
  "source": "patent US20070104771A1",
  "about": "“Transdermal galantamine delivery system” (priority 2005, published 2007)",
  "origin": "cited, not measured here",
  "data": [
    {"smiles": "COc1ccc2c3c1OC1CC(O)C=CC31CCN(C)C2", "note": "(stereo not shown) [galantamine, 4a, 5,9, 10, 11, 12-Hexahydro-3-methoxy-11-methyl-6H-benzofuro (3a, 3,2-ef) (2) benzazepin-6-ol]", "values": [
      {"measurement": "oral bioavailability", "result": 90, "unit": "%"}
    ]}
  ]
}
